The subject of assay [1] is MCF7. As to the kind of experiment: Cytotoxicity against human MCF7 cells after 48 hrs by CCK-8 assay. Type of assay: functional, cell-based. The note with it: MCF7, 48 h.
A short description of assay [2]: Cytotoxicity against human NB4 cells after 48 hrs by CCK-8 assay. Type of assay: functional, cell-based. The note with it: NB-4, 48 h. (Tetrazolium assays rely on reduction of a dye to a coloured formazan, in cell work by metabolically active cells.)
In assay [3] the test system is SK-BR-3. As to the kind of experiment: Cytotoxicity against human SK-BR-3 cells after 48 hrs by CCK-8 assay. The note with it: SK-BR-3, 48 h. Type of assay: functional, cell-based.
A short description of assay [4]: Cytotoxicity against human NB4 cells assessed as growth inhibition at 5 to 25 uM after 48 hrs by CCK-8 assay. Type of assay: functional, NB-4.
Assay [5] deals with BT-474. As to the kind of experiment: Cytotoxicity against human BT474 cells after 48 hrs by CCK-8 assay. Type of assay: functional, cell-based. The note with it: BT-474, 48 h.
The test system of assay [6] is K562. Kind of assay: Cytotoxicity against human K562 cells after 48 hrs by CCK-8 assay. As to conditions: K562, 48 h. Type of assay: functional, cell-based.
The test system of assay [7] is U-937. As to the kind of experiment: Cytotoxicity against human U937 cells after 48 hrs by CCK-8 assay. Type of assay: functional, cell-based. As to conditions: U-937, 48 h.
Assay [8] has as its system BT-549. As to the kind of experiment: Cytotoxicity against human BT549 cells after 48 hrs by CCK-8 assay. As to conditions: BT-549, 48 h. Type of assay: functional, cell-based.
Assay [9] deals with Kasumi 1. Kind of assay: Cytotoxicity against human Kasumi-1 cells after 48 hrs by CCK-8 assay. Type of assay: functional, cell-based. As to conditions: Kasumi 1, 48 h.
For assay [10], the system named is SW-620. As to the kind of experiment: Cytotoxicity against human SW620 cells after 48 hrs by CCK-8 assay. Type of assay: functional, cell-based. The note with it: SW-620, 48 h.
Assay [11] relates to HL-60. As to the kind of experiment: Cytotoxicity against human HL60 cells after 48 hrs by CCK-8 assay. Type of assay: functional, cell-based. The note with it: HL-60, 48 h.
Assay [12] relates to Jurkat. Kind of assay: Cytotoxicity against human Jurkat cells after 48 hrs by CCK-8 assay. Type of assay: functional, cell-based.
Assay [13] is described as follows: Cytotoxicity against human NB4 cells assessed as growth inhibition at 0.2 uM after 48 hrs by CCK-8 assay. Type of assay: functional. The note with it: NB-4, 48 h.
Assay [14] in a line: Cytotoxicity against human MDA-MB-435S cells after 48 hrs by CCK-8 assay. Type of assay: functional, cell-based.

Take `CCCCCCCCCC[C@H](O)COCCOC[C@@H](O)CCCCCCCCCCCCC1=C[C@H](C)OC1=O`: the IC50 was above 25 µM in assay [1]; 0.7 µM in assay [2]; 22.1 µM in [3]; above 25 µM in assay [5]; 2.7 µM in [6]; 1.2 µM in [7]. Besides, the IC50 in assay [8] was 3.3 µM; in assay [9], 1.1 µM; in assay [10] it was above 25 µM; in assay [11], above 25 µM; in [12], 2.6 µM; in assay [14], above 25 µM. For the same compound, in assay [4], the “inhibition (INH)” value is recorded as above 70%. Besides, in assay [13], the inhibition at 0.2 µM is 48.6%.
`CCCCCCCCCC[C@H](O)COCCOC[C@@H](O)Cc1cn(CCCCCCCCCC2=C[C@H](C)OC2=O)nn1`: the IC50 in assay [1] was above 25 µM; in assay [2], 3.2 µM; in assay [3] it was above 25 µM; in [5] it was above 25 µM; in assay [6], 8.5 µM; in [7] it was above 25 µM. In addition, the half-maximal inhibitory concentration (IC50) in [8] was above 25 µM; in [9], 17.8 µM; in assay [10] it was above 25 µM; in [11] it was above 25 µM; in assay [12] it was above 25 µM; in assay [14], above 25 µM.
Take `CCCCCCCCCC[C@H](O)COCCOC[C@@H](O)CCC1CCN(CCCCCCCCCC2=C[C@H](C)OC2=O)CC1`: the concentration for half-maximal inhibition (IC50) in assay [1] is above 25 µM; in assay [2], 1.9 µM; in assay [3], 8 µM; in assay [5] it was above 25 µM; in assay [6], 3.1 µM; in [7], 4.4 µM. For the same compound, the IC50 in [8] is 2.2 µM; in assay [9], 3.9 µM; in assay [10], 8.1 µM; in assay [11] it was above 25 µM; in [12], 1.2 µM; in assay [14] it was 5 µM. Besides, in assay [4], the “inhibition (INH)” value is listed as above 70%. The inhibition at 0.2 µM in assay [13] amounted to 6.2%.
`CCCCCCCCCC[C@H](O)COCCOC[C@@H](O)CC(=O)NCCCCCCCCCC1=C[C@H](C)OC1=O`: the IC50 in assay [1] was above 25 µM; in assay [2], 4.5 µM; in assay [3], above 25 µM; in assay [5] it was above 25 µM; in assay [6], 15 µM; in assay [7], 5.2 µM. Also, the IC50 in assay [8] is above 25 µM; in [9] it was 16.7 µM; in assay [10], above 25 µM; in assay [11], 7.4 µM; in assay [12], 14 µM; in assay [14], above 25 µM.

What is called IC50 is the concentration at which inhibition is half-maximal. By inhibition is commonly meant the percentage by which the read-out fell short of the control.

Values taken from ChEMBL document CHEMBL3217616, “Modular assembly of cytotoxic acetogenin mimetics by click linkage with nitrogen functionalities” (Medchemcomm, 2011).
